# Data as given in patent publication EP0063525A1, “Dibenzazepine tetracyclic derivatives, process for their preparation and pharmaceutical compositions containing them” (CENTRE NATIONAL DE LA RECHERCHE SCIENTIFIQUE (CNRS), priority 1981, dated 1982).
# Read-outs that look alike come from different tables or passages of the source.
# How the values were obtained:
# souris femelles = assay: acute toxicity in the mouse, intraperitoneal; format: in vivo; settings: voie intrapéritonéale; for Mortalité en 1 heure / Mortalité en 48 h. / Mortalité en 48 heures: dead mice of the group
# Text: (§1) Les produits ont été administrés par voie intrapéritonéale à des souris femelles dont le poids variait de 18 à 30 g.
# (§2) Les animaux injectés ont été maintenus dans une salle thermostatée, nourris et abreuvés à volonté.
# (§3) La mortalité a été relevée à 1 heure, 4 heures, 24 heures et 48 heures.
# [1] = acute toxicity in the mouse, intraperitoneal; format: in vivo, Souris; settings: mouse, in vivo, ip, voie intrapéritonéale; for LD50 at 48 h: souris femelles, read-out: DL 50; for mortality at 48 h: read-out: Mortalité %
# Text: as §1, §2, §3
# Souris [2] = assay: tetrabenazine hypothermia; format: in vivo
# Description: (§4) Ce test permet de révéler également une activité antidépressive avec l'avantage d'une lecture plus rapide qu'avec la réserpine.
# Les produits sont injectés 30 minutes avant l'administration de tétrabénazine.
# Les températures sont relevées aux temps : 0, 30 minutes, 60 minutes, 90 minutes et 120 minutes.
# (§5) Les souris sont réparties par lots de 5.
# Les températures sont relevées avant l'injection de tétrabénazine, 30 minutes, 60 minutes, 90 minutes et 120 minutes après.
# (§6) Le lot témoin comprend 20 souris.
# Souris [3] = assay: tetrabenazine ptosis; format: in vivo
# Description: as §4, §5
# Le ptosis est noté avant l'injection de tétrabénazine, 30 minutes, 60 minutes, 90 minutes et 120 minutes après.
# On a adopté la notation suivante : • - 0 : pour un oeil ouvert, • - 1 : pour un oeil fermé au quart, • - 2 : pour un oeil fermé à moitié, • - 3 : pour un oeil fermé aux trois-quarts, • - 4 : pour un oeil fermé complètement.
# as §6
# Souris [4] = assay: antireserpine activity: reserpine hypothermia; format: in vivo; settings: réserpine 5 mg/kg i.p. 17 h before
# Description: On note ensuite les températures témoins (réserpine), puis les températures 1, 2, 3 et 4 heures après l'administration des produits étudiés.
# Les animaux sont répartis en lots de 4 animaux et reçoivent par voie intrapéritonéale la réserpine à une dose de 5 mg/kg. 17 heures après cette injection, on mesure la température corporelle de l'animal à l'aide d'une sonde thermocouple introduite dans le rectum; chaque lot reçoit ensuite la substance par voie intrapéritonéale. Le lot témoin reçoit la même quantité de solvant et par la même voie. La température corporelle est ensuite mesurée toutes les heures pendant 4 heures.
# Les résultats sont rassemblés dans un tableau récapitulatif-où sont indiqués : • - la température moyenne pour chaque lot relevée 17 heures après l'injection de la réserpine, • - la moyenne des variations de température pour chaque lot relevées 1,2, 3 et 4 heures après l'injection de la substance étudiée, • - la somme des variations de températures pendant 4 heures, • - le pourcentage d'augmentation de la température pour chaque produit par rapport aux témoins.
# [5] = product i.p. 50 mg/kg 30 min before tétrabénazine 32 mg/kg i.v.
# [6] = product i.p. 50 mg/kg 30 min before tétrabénazine 32 mg/kg i.v., score 0-4 per eye
# [7] = product i.p. 100 mg/kg 30 min before tétrabénazine 32 mg/kg i.v.
# [8] = product i.p. 100 mg/kg 30 min before tétrabénazine 32 mg/kg i.v., score 0-4 per eye
# [9] = product i.p. 200 mg/kg 30 min before tétrabénazine 32 mg/kg i.v.
# [10] = product i.p. 200 mg/kg 30 min before tétrabénazine 32 mg/kg i.v., score 0-4 per eye
# [11] = product i.p. 150 mg/kg 30 min before tétrabénazine 32 mg/kg i.v.
# [12] = product i.p. 150 mg/kg 30 min before tétrabénazine 32 mg/kg i.v., score 0-4 per eye
compound,measurement,setting,value
"CN(C)CCCN1c2ccccc2C2ON=C(c3ccccc3)C2c2ccccc21 (centres unmarked) [compound 3, (γ-diméthylaminopropyl)-8 phényl-3 trihydro-3a, 8,12b (dibenzo [b,f]isoxazolo [4,5-d])azépine]",Mortalité en 1 heure,souris femelles; 100 mg/kg,0
same,Mortalité en 48 h.,souris femelles; 100 mg/kg,0
same,Mortalité en 1 heure,souris femelles; 150 mg/kg,0
same,Mortalité en 48 h.,souris femelles; 150 mg/kg,0
same,Mortalité en 1 heure,souris femelles; 200 mg/kg,2
same,Mortalité en 48 h.,souris femelles; 200 mg/kg,2
same,Mortalité en 1 heure,souris femelles; 250 mg/kg,5
same,Mortalité en 48 h.,souris femelles; 250 mg/kg,5
same,LD50 at 48 h,[1],200 mg/kg
same,mortality at 48 h,[1]; 100 mg/kg,0%
same,mortality at 48 h,[1]; 150 mg/kg,0%
same,mortality at 48 h,[1]; 200 mg/kg,40%
same,mortality at 48 h,[1]; 250 mg/kg,100%
same,inhibition in vivo at 50 mg/kg,"Souris [2]; ip, 2 h, hypothermie, product i.p. 50 mg/kg 30 min before tétrabénazine 32 mg/kg i.v., read-out: % de protection",40%
same,Température après tétrabénazine 30 minutes,Souris [2]; [5],"-0,9"
same,Température après tétrabénazine 60 minutes,Souris [2]; [5],"-1,2"
same,Température après tétrabénazine 90 minutes,Souris [2]; [5],"-2,6"
same,Température après tétrabénazine 120 minutes,Souris [2]; [5],"-0,4"
same,Température après tétrabénazine Total,Souris [2]; [5],"-5,1"
same,inhibition in vivo at 50 mg/kg,"Souris [3]; ip, 2 h, ptosis, product i.p. 50 mg/kg 30 min before tétrabénazine 32 mg/kg i.v., read-out: % de protection",32%
same,Ptosis Total,Souris [3]; [5],"20,4"
same,Ptosis 30 minutes,Souris [3]; [6],"1,6"
same,Ptosis 60 minutes,Souris [3]; [6],"5,2"
same,Ptosis 90 minutes,Souris [3]; [6],"6,8"
same,Ptosis 120 minutes,Souris [3]; [6],"6,8"
same,change in vivo at 50 mg/kg,"Souris [4]; ip, 4 h, product i.p. 50 mg/kg, read-out: % d'augmentation par rapport aux témoins",125%
same,variation de température T= 2h,Souris [4]; product i.p. 50 mg/kg,"+0,9"
same,variation de température T=3h,Souris [4]; product i.p. 50 mg/kg,"+0,9"
same,variation de température T=4h,Souris [4]; product i.p. 50 mg/kg,"+0,1"
"CN(C)CCN1c2ccccc2C2C(c3ccccc3)=NN(c3ccccc3)C2c2ccccc21 (stereo not drawn) [compound 7, (β-diméthylaminoéthyl)-8 diphényl-1,3 tétrahydro-1,3a, 8, 12b (dibenzo [b,f]pyrazolo [3,4-d]) azépine]",Mortalité en 1 heure,souris femelles; 250 mg/kg,0
same,Mortalité en 48 h.,souris femelles; 250 mg/kg,0
same,Mortalité en 1 heure,souris femelles; 500 mg/kg,0
same,Mortalité en 48 h.,souris femelles; 500 mg/kg,0
same,Mortalité en 1 heure,souris femelles; 900 mg/kg,1
same,Mortalité en 48 h.,souris femelles; 900 mg/kg,1
same,LD50 at 48 h,[1],> 500 mg/kg
same,mortality at 48 h,[1]; 250 mg/kg,0%
same,mortality at 48 h,[1]; 500 mg/kg,0%
same,inhibition in vivo at 100 mg/kg,"Souris [2]; ip, 2 h, hypothermie, product i.p. 100 mg/kg 30 min before tétrabénazine 32 mg/kg i.v., read-out: % de protection",26%
same,Température après tétrabénazine 30 minutes,Souris [2]; [7],"-3,2"
same,Température après tétrabénazine 60 minutes,Souris [2]; [7],"-1,3"
same,Température après tétrabénazine 90 minutes,Souris [2]; [7],-1
same,Température après tétrabénazine 120 minutes,Souris [2]; [7],"-0,8"
same,Température après tétrabénazine Total,Souris [2]; [7],"-6,3"
same,inhibition in vivo at 100 mg/kg,"Souris [3]; ip, 2 h, ptosis, product i.p. 100 mg/kg 30 min before tétrabénazine 32 mg/kg i.v., read-out: % de protection",14%
same,Ptosis Total,Souris [3]; [7],"25,8"
same,Ptosis 30 minutes,Souris [3]; [8],"3,8"
same,Ptosis 60 minutes,Souris [3]; [8],7
same,Ptosis 90 minutes,Souris [3]; [8],7
same,Ptosis 120 minutes,Souris [3]; [8],8
same,change in vivo at 100 mg/kg,"Souris [4]; ip, 4 h, product i.p. 100 mg/kg, read-out: % d'augmentation par rapport aux témoins",125%
same,variation de température T= 2h,Souris [4]; product i.p. 100 mg/kg,"+1,1"
same,variation de température T=3h,Souris [4]; product i.p. 100 mg/kg,"+0,7"
same,variation de température T=4h,Souris [4]; product i.p. 100 mg/kg,"+0,1"
CN(C)CCN1c2ccccc2-c2c(-c3ccccc3)nn(-c3ccccc3)c2-c2ccccc21 [compound 13],Mortalité en 1 heure,souris femelles; 50 mg/kg,0
same,Mortalité en 48 h.,souris femelles; 50 mg/kg,0
same,Mortalité en 1 heure,souris femelles; 100 mg/kg,0
same,Mortalité en 48 h.,souris femelles; 100 mg/kg,0
same,Mortalité en 1 heure,souris femelles; 250 mg/kg,0
same,Mortalité en 48 h.,souris femelles; 250 mg/kg,0
same,Mortalité en 1 heure,souris femelles; 400 mg/kg,3
same,Mortalité en 48 heures,souris femelles; 400 mg/kg,3
same,Mortalité en 1 heure,souris femelles; 750 mg/kg,2
same,Mortalité en 48 h.,souris femelles; 750 mg/kg,5
same,LD50 at 48 h,[1],350 mg/kg
same,mortality at 48 h,[1]; 50 mg/kg,0%
same,mortality at 48 h,[1]; 100 mg/kg,0%
same,mortality at 48 h,[1]; 250 mg/kg,0%
same,mortality at 48 h,[1]; 400 mg/kg,60%
same,mortality at 48 h,[1]; 750 mg/kg,100%
same,inhibition in vivo at 200 mg/kg,"Souris [2]; ip, 2 h, hypothermie, product i.p. 200 mg/kg 30 min before tétrabénazine 32 mg/kg i.v., read-out: % de protection",15%
same,Température après tétrabénazine 30 minutes,Souris [2]; [9],"-3,4"
same,Température après tétrabénazine 60 minutes,Souris [2]; [9],"-1,9"
same,Température après tétrabénazine 90 minutes,Souris [2]; [9],"-1,1"
same,Température après tétrabénazine 120 minutes,Souris [2]; [9],"-0,9"
same,Température après tétrabénazine Total,Souris [2]; [9],"-7,3"
same,inhibition in vivo at 200 mg/kg,"Souris [3]; ip, 2 h, ptosis, product i.p. 200 mg/kg 30 min before tétrabénazine 32 mg/kg i.v., read-out: % de protection",14%
same,Ptosis Total,Souris [3]; [9],"25,9"
same,Ptosis 30 minutes,Souris [3]; [10],4
same,Ptosis 60 minutes,Souris [3]; [10],"6,8"
same,Ptosis 90 minutes,Souris [3]; [10],"7,6"
same,Ptosis 120 minutes,Souris [3]; [10],"7,5"
same,change in vivo at 200 mg/kg,"Souris [4]; ip, 4 h, product i.p. 200 mg/kg, read-out: % d'augmentation par rapport aux témoins",70%
same,variation de température T=1h,Souris [4]; product i.p. 200 mg/kg,"+1,9"
same,variation de température T= 2h,Souris [4]; product i.p. 200 mg/kg,+1
same,variation de température T=3h,Souris [4]; product i.p. 200 mg/kg,"+0,5"
same,variation de température T=4h,Souris [4]; product i.p. 200 mg/kg,0
"( [1'-(β-hydroxyéthyl-4') pipérazinyl]-3propyl)-8 diphényl-1,3 tétrahydro-1,3a, 8,12b(dibenzo[b,f] pyrazolo [3,4-d])azépine [compound 10]",DL 50,"souris femelles; souris femelles, 2880 min",>750 mg/kg
same,Mortalité %,"souris femelles; 200 mg/kg, 2880 min",0%
same,Mortalité en 1 heure,souris femelles; 200 mg/kg,0
same,Mortalité en 48 h.,souris femelles; 200 mg/kg,0
same,Mortalité %,"souris femelles; 300 mg/kg, 2880 min",0%
same,Mortalité en 1 heure,souris femelles; 300 mg/kg,0
same,Mortalité en 48 h.,souris femelles; 300 mg/kg,0
same,Mortalité %,"souris femelles; 750 mg/kg, 2880 min",0%
same,Mortalité en 1 heure,souris femelles; 750 mg/kg,0
same,Mortalité en 48 h.,souris femelles; 750 mg/kg,0
same,Mortalité en 1 heure,souris femelles; 1500 mg/kg,0
same,Mortalité en 48 heures,souris femelles; 1500 mg/kg,1
same,% de protection,"Souris [2]; hypothermie, product i.p. 150 mg/kg 30 min before tétrabénazine 32 mg/kg i.v.",53%
same,Température après tétrabénazine 30 minutes,Souris [2]; [11],"-1,7"
same,Température après tétrabénazine 60 minutes,Souris [2]; [11],"-1,9"
same,Température après tétrabénazine 90 minutes,Souris [2]; [11],"+0,6"
same,Température après tétrabénazine 120 minutes,Souris [2]; [11],-1
same,Température après tétrabénazine Total,Souris [2]; [11],-4
same,Ptosis Total,Souris [3]; [11],"20,8"
same,Ptosis 30 minutes,Souris [3]; [12],1
same,Ptosis 60 minutes,Souris [3]; [12],6
same,Ptosis 90 minutes,Souris [3]; [12],"5,8"
same,Ptosis 120 minutes,Souris [3]; [12],8
same,Ptosis T = 0,"Souris [3]; product i.p. 150 mg/kg, before tétrabénazine, score 0-4 per eye",0
same,% de protection,"Souris [3]; ptosis, product i.p. 150 mg/kg 30 min before tétrabénazine 32 mg/kg i.v.",31%
same,% d'augmentation par rapport aux témoins,Souris [4]; product i.p. 150 mg/kg,205%
same,variation de température T= 2h,Souris [4]; product i.p. 150 mg/kg,"+2,4"
same,variation de température T=3h,Souris [4]; product i.p. 150 mg/kg,"+1,4"
same,variation de température T=4h,Souris [4]; product i.p. 150 mg/kg,"+0,6"
